This note sets out measurements from patent US20240150356A1, “Pyrimidine amide compounds and use thereof” (ALPHALA CO., LTD., priority 2019, published 2024).

As a reminder, the LC50 is the concentration that kills 50% of the test population.

What all share (assay type): cell-based
Assay [1] relates to SW480 (colon adenocarcinoma cell line). Put plainly: In vitro MTS cell viability assay (NCI-60 methodology), SW480. The conditions noted are these: Homo sapiens, SW480 cells, read-out: SW480 LC50. In outline: (§1)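 NCI-60 style: compound added 24 h post-plating at five 2-fold dilutions plus DMSO control, then 2 days' incubation, MTS read-out. Time-zero plate gives Tz; LC50 is the concentration where [(Ti−Tz)/Tz]×100=−50.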
In general terms: Formazan colour is commonly taken as a measure of viable cells.

Assay [2] concerns NCI-H460 (human lung cancer cell line). Put plainly: In vitro MTS cell viability assay (NCI-60 methodology), NCI-H460. The conditions noted are these: NCI-H460 cells, read-out: NCI-H460 LC50. In outline: as §1
Assay [3] deals with Hep3B cells (hepatocellular carcinoma cell line). Kind of assay: In vitro MTS cell viability assay (NCI-60 methodology), Hep3B. The conditions noted are these: Homo sapiens, 48 h, 2 days drug incubation, 50% reduction vs time zero, read-out: Hep3B LC50. The essentials:
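Following NCI-60 method, MTS viability of Hep3B measured 24 h after plating (time zero) and after a further 2-day exposure to five concentrations (2-fold series). LC50 defined where [(Ti−Tz)/Tz]×100 = −50.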

Where two headings read alike, the source gives them in different places.

For the compound `O=C(Nc1nc(N2CCC(F)(F)C2)nc2c1cnn2-c1ccccc1)c1ccc([N+](=O)[O-])s1` [Compound 5-6, N-(6-(3,3-difluoropyrrolidin-1-yl)-1-phenyl-1H-pyrazolo[3,4-d]pyrimidin-4-yl)-5-nitrothiophene-2-carboxamide], the CC50 in assay [1] turned out to be 1960 nM; in assay [2] it was 1460 nM. The median lethal concentration (LC50) in assay [3] (Table 5, MTS) came to 530 nM.

In the case of `O=C(Nc1nc(-c2ccc(Cl)cc2)nc2c1cnn2-c1ccc(C(F)(F)F)cn1)c1ccc([N+](=O)[O-])s1` [Compound 7-3, N-(6-(4-chlorophenyl)-1-(5-(trifluoromethyl)pyridin-2-yl)-1H-pyrazolo[3,4-1]pyrimidin-4-yl)-5-nitrothiophene-2-carboxamide], the values for the CC50 in assay [1] and in assay [2] were 530 nM and 400 nM, respectively. Besides, the median lethal concentration (LC50) in assay [3] (Table 7, MTS) came out at 130 nM.

As for `O=C(Nc1nc(-c2ccc(F)c(F)c2)nc2c1cnn2-c1ccccc1)c1ccc([N+](=O)[O-])s1` [Compound 5-44, N-(6-(3,4-difluorophenyl)-1-phenyl-1H-pyrazolo[3,4-d]pyrimidin-4-yl)-5-nitrothiophene-2-carboxamide], the values for the CC50 in assay [1] and in assay [2] were 1620 nM and 4640 nM, respectively. The LC50 in assay [3] (Table 5, MTS) was found to be 250 nM.

Consider `Cc1ccc(-n2ncc3c(NC(=O)c4ccc([N+](=O)[O-])s4)nc(-c4ccc(F)nc4)nc32)cc1` [Compound 6-5, N-(6-(6-fluoropyridin-3-yl)-1-(p-tolyl)-1H-pyrazolo[3,4-d]pyrimidin-4-yl)-5-nitrothiophene-2-carboxamide], for which the CC50 in assay [1] stood at 650 nM; in assay [2], 910 nM. In assay [3] (Table 6, MTS), the LC50 was found to be 110 nM.

Regarding `O=C(Nc1nc(-c2ccc(F)nc2)nc2c1cnn2C1CCCCC1)c1ccc([N+](=O)[O-])s1` [Compound 10-14, N-(1-cyclohexyl-6-(6-fluoropyridin-3-yl)-1H-pyrazolo[3,4-d]pyrimidin-4-yl)-5-nitrothiophene-2-carboxamide], the CC50 in assay [1] turned out to be 1710 nM; in assay [2], 910 nM. The LC50 in assay [3] (Table 10, MTS) came to 890 nM.

Consider `CC(C)(C)c1ccc(-n2ncc3c(NC(=O)c4ccc([N+](=O)[O-])s4)nc(-n4cccn4)nc32)cc1` [Compound 6-75, N-(1-(4-tert-butyl)phenyl)-6-(4-(1H-pyrazol-1-yl)-1H-pyrazolo[3,4-d]pyrimidin-4-yl)-5-nitrothiophene-2-carboxamide], for which the CC50 in assay [1] was 5480 nM; in assay [2], 1280 nM. For the same compound, the 50% lethal concentration (LC50) in assay [3] (Table 6, MTS) is 240 nM.

In the case of `CC(C)n1ncc2c(NC(=O)c3ccc([N+](=O)[O-])s3)nc(-c3ccc(OC(F)(F)F)cc3)nc21` [Compound 1-22, N-(1-isopropyl-6-(4-(trifluoromethoxy)phenyl)-1H-pyrazolo[3,4-d]pyrimidin-4-yl)-5-nitrothiophene-2-carboxamide], the figures for the CC50 in assay [1] and in assay [2] were 5380 nM and 2180 nM, respectively. Moreover, the LC50 in assay [3] (Table 1, MTS) was 730 nM.

On to `Cn1ncc2c(NC(=O)c3ccc([N+](=O)[O-])s3)nc(/C=C/c3ccc(C(F)(F)F)cc3)nc21` [Compound 1-11, (E)-N-(1-methyl-6-(4-(trifluoromethyl)styryl)-1H-pyrazolo[3,4-d]pyrimidin-4-yl)-5-nitrothiophene-2-carboxamide], for which the CC50 came out at 2240 nM in assay [1] and 2620 nM in assay [2]. Besides, the LC50 in assay [3] (Table 1, MTS) turned out to be 1710 nM.

`O=C(Nc1nc(-c2ccc(F)cc2F)nc2c1cnn2-c1ccccc1)c1ccc([N+](=O)[O-])s1` [Compound 5-45, N-(6-(2,4-difluorophenyl)-1-phenyl-1H-pyrazolo[3,4-d]pyrimidin-4-yl)-5-nitrothiophene-2-carboxamide]: the CC50 in assay [1] amounted to 1110 nM; in assay [2], 2180 nM. For the same compound, the LC50 in assay [3] (Table 5, MTS) is 440 nM.

`CC(C)(C)n1ncc2c(NC(=O)c3ccc([N+](=O)[O-])s3)nc(-c3ccc(OC(F)(F)F)cc3)nc21` [Compound 1-27, N-(1-(tert-butyl)-6-(4-(trifluoromethoxy)phenyl)-1H-pyrazolo[3,4-d]pyrimidin-4-yl)-5-nitrothiophene-2-carboxamide]: the CC50 in assay [1] is 4140 nM; in assay [2], 1990 nM. Besides, in assay [3] (Table 1, MTS), the LC50 was determined as 610 nM.

Consider `COc1ccc(-n2ncc3c(NC(=O)c4ccc([N+](=O)[O-])s4)nc(-c4ccc(F)cc4)nc32)cc1` [Compound 6-18, N-(6-(4-fluorophenyl)-1-(4-methoxyphenyl)-1H-pyrazolo[3,4-d]pyrimidin-4-yl)-5-nitrothiophene-2-carboxamide], for which the CC50 is 1240 nM in assay [1] and 270 nM in assay [2]. The LC50 in assay [3] (Table 6, MTS) came to 180 nM.

`O=C(Nc1nc(-c2cccc(Cl)c2)nc2c1cnn2-c1ccc(F)cc1)c1ccc([N+](=O)[O-])s1` [Compound 6-117, N-(6-(3-chlorophenyl)-1-(4-fluorophenyl)-1H-pyrazolo[3,4-d]pyrimidin-4-yl)-5-nitrothiophene-2-carboxamide]: the CC50 in assay [1] was determined as 910 nM; in assay [2], 600 nM. Moreover, the LC50 in assay [3] (Table 6, MTS) is 150 nM.

As for `O=C(Nc1nc(-c2ccc(F)c(F)c2)nc2c1cnn2-c1ccc(F)cc1)c1ccc([N+](=O)[O-])s1` [Compound 6-125, N-(6-(3,4-difluorophenyl)-1-(4-fluorophenyl)-1H-pyrazolo[3,4-d]pyrimidin-4-yl)-5-nitrothiophen-2-carboxamide], the results for the CC50 in assay [1] and in assay [2] were 2280 nM and 350 nM, respectively. Besides, in assay [3] (Table 6, MTS), the LC50 is 100 nM.

Consider `COc1ccc(-n2ncc3c(NC(=O)c4ccc([N+](=O)[O-])s4)nc(-c4ccc(F)nc4)nc32)cc1` [Compound 6-19, N-(6-(6-fluoropyridin-3-yl)-1-(4-methoxyphenyl)-1H-pyrazolo[3,4-d]pyrimidin-4-yl)-5-nitrothiophene-2-carboxamide], for which the CC50 stood at 450 nM in assay [1] and 220 nM in assay [2]. Moreover, the LC50 in assay [3] (Table 6, MTS) came to 60 nM.

For `O=C(Nc1nc(-c2ccc(N3CCCCC3)nc2)nc2c1cnn2-c1ccccc1)c1ccc([N+](=O)[O-])s1` [Compound 5-42, 5-nitro-N-(1-phenyl-6-(6-(piperidin-1-yl)pyridin-3-yl)-1H-pyrazolo[3,4-d]pyrimidin-4-yl)thiophene-2-carboxamide], the CC50 is 890 nM in assay [1] and 1670 nM in assay [2]. The 50% lethal concentration (LC50) in assay [3] (Table 5, MTS) was found to be 510 nM.

For the compound `CC(C)(C)c1ccc(-n2ncc3c(NC(=O)c4ccc([N+](=O)[O-])s4)nc(N4CCC[C@H]4CO)nc32)cc1` [Compound 6-71, (S)—N-(1-(4-(tert-butyl)phenyl)-6-(2-(hydroxymethyl)pyrrolidin-1-yl)-1H-pyrazolo[3,4-d]pyrimidin-4-yl)-5-nitrothiophene-2-carboxamide], the CC50 in assay [1] is 980 nM; in assay [2], 440 nM. Also, the median lethal concentration (LC50) in assay [3] (Table 6, MTS) was 280 nM.

`O=C(Nc1nc(-c2ccc(Cl)cc2F)nc2c1cnn2-c1ccc(F)cc1)c1ccc([N+](=O)[O-])s1` [Compound 6-128, N-(6-(4-chloro-2-fluorophenyl)-1-(4-fluorophenyl)-1H-pyrazolo[3,4,d]pyrimidin-4-yl)-5-nitrothiophene-2-carboxamide]: the CC50 in assay [1] was determined as 570 nM; in assay [2], 310 nM. For the same compound, the LC50 in assay [3] (Table 6, MTS) is 70 nM.

As to `O=C(Nc1nc(-c2cccc(F)c2)nc2c1cnn2-c1ccc(F)cc1)c1ccc([N+](=O)[O-])s1` [Compound 6-114, N-(6-(3-fluorophenyl)-1-(4-fluorophenyl)-1H-pyrazolo[3,4-d]pyrimidin-4-yl)-5-nitrothiophene-2-carboxamide], the CC50 in assay [1] came to 840 nM; in assay [2], 350 nM. Moreover, the LC50 in assay [3] (Table 6, MTS) is 200 nM.

Consider `O=C(Nc1nc(-c2ccc(F)nc2)nc2c1cnn2-c1cccc(F)c1)c1ccc([N+](=O)[O-])s1` [Compound 6-90, N-(1-(3-fluorophenyl)-6-(6-fluoropyridin-3-yl)-1H-pyrazolo[3,4-d]pyrimidin-4-yl)-5-nitrothiophene-2-carboxamide], for which the CC50 came to 540 nM in assay [1] and 560 nM in assay [2]. Also, the LC50 in assay [3] (Table 6, MTS) was found to be 140 nM.

Consider `O=C(Nc1nc(-c2ccc(F)nc2)nc2c1cnn2-c1cccc(Cl)c1)c1ccc([N+](=O)[O-])s1` [Compound 6-36, N-(1-(3-chlorophenyl)-6-(6-fluoropyridin-3-yl)-1H-pyrazolo[3,4-d]pyrimidin-4-yl)-5-nitrothiophene-2-carboxamide], for which the CC50 was found to be 2800 nM in assay [1] and 670 nM in assay [2]. Moreover, the 50% lethal concentration (LC50) in assay [3] (Table 6, MTS) stood at 90 nM.

Take `O=C(Nc1nc(-c2ccc3c(c2)OCO3)nc2c1cnn2-c1cccc(Cl)c1)c1ccc([N+](=O)[O-])s1` [Compound 6-39, N-(6-(benzo[d][1,3]dioxol-5-yl)-1-(3-chlorophenyl)-1H-pyrazolo[3,4-d]pyrimidin-4-yl)-5-nitrothiophene-2-carboxamide]: the CC50 in assay [1] came to 3180 nM; in assay [2] it was 1070 nM. In addition, in assay [3] (Table 6, MTS), the LC50 was determined as 270 nM.

For `CC(C)(C)c1ccc(-n2ncc3c(NC(=O)c4ccc([N+](=O)[O-])s4)nc(N4CCC(F)(F)C4)nc32)cc1` [Compound 6-66, N-(1-(4-(tert-butyl)phenyl)-6-(3,3-difluoropyrrolidin-1-yl)-1H-pyrazolo[3,4,d]pyrimidin-4-yl)-5-nitrothiophene-2-carboxamide], the CC50 in assay [1] is more than 10000 nM; in assay [2], 410 nM. Moreover, the LC50 in assay [3] (Table 6, MTS) came to 130 nM.

In the case of `CCOC[C@@H]1CCCN1c1nc(NC(=O)c2ccc([N+](=O)[O-])s2)c2cnn(-c3ccc(F)cc3)c2n1` [Compound 6-104], the CC50 in assay [1] was 650 nM; in assay [2] it was 860 nM. Further, in assay [3] (Table 6, MTS), the median lethal concentration (LC50) stood at 380 nM.
